Results from patent US20210283151A1, “USE OF COMPOUND IN DRUG FOR PREVENTING, TREATING, OR ALLEVIATING PAIN” (ASCENTAWITS PHARMACEUTICALS, LTD., priority 2018, published 2021).

What was measured:
[1] = biological target: T1, AKR1C3 (Homo sapiens, UniProt P42330); test: In vitro AKR1C3 activity: production of reduced progesterone (20α-dihydroprogesterone) by LC/MS; assay type: biochemical; conditions: reaction 30 min; for AKR1C3 activity % / activity at 5 µM: negative control = 100
T1 sequence (P42330 1-323): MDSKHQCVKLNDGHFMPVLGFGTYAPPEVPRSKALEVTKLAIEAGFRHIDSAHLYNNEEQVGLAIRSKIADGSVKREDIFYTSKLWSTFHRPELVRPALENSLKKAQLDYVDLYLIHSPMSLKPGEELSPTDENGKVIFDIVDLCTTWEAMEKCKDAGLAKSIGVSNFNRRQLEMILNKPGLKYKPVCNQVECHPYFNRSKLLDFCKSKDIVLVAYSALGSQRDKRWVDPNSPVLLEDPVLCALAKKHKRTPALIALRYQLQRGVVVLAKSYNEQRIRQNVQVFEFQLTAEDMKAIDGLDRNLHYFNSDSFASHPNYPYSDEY
Experimental: Experimental apparatus: Waters Acquity I Class UPLC Ultra Performance Liquid Chromatograph equipped with a Xevo G2-XS Q Tof HRMS Quadrupole Time-of-flight High-Resolution Mass Spectrometer
1. PBS phosphate buffered saline solution,
2. PBS phosphate buffered saline solution of 20 mM NADPH
3. PBS phosphate buffered saline solution of 250 μg/mL AKR1C3
5. 50% MeOH/H2O solution of 250 μM progesterone
6. 100% acetonitrile solution of 1 μg/mL propranolol
In step 1, the reaction mixtures were prepared into Eppendorf tubes in quadruplicate (n=4) according to the table below and mixed gently.
In step 2, the above mixtures were pre-incubated in duplicate at 37° C. for 30 minutes and 60 minutes.
In step 3, another 10 μL of PBS phosphate buffered saline solution of 20 mM NADPH and 2 μL of 50% MeOH/H2O solution of 250 μM progesterone were added to each Eppendorf tube and mixed gently.
In step 4, 50 μL of the mixture in the above step was immediately transferred to 100 μL of 100% acetonitrile solution of 1 μg/mL propranolol (internal standard (IS)).
In step 5, the remaining samples were incubated at 37° C. for 30 minutes, and 100 μL of 100% acetonitrile solution of 1 μg/mL propranolol (internal standard (IS)) was added.
In step 6, 100 μL of reagent water was added to all the samples, vortexed at 1,100 rpm for 5 minutes, and centrifuged at 15,000 rpm for 10 minutes at room temperature.
In step 7, all the samples were loaded on LC/MS to determine the content of reduced progesterone, namely 20α-dihydroprogesterone.
The test conditions for the LC-MS apparatus are shown below
In step 9, the reduced progesterone (20α-dihydroprogesterone) is calculated: the peak area of the reduced progesterone, namely 20α-dihydroprogesterone and propranolol, in each sample was determined by LC/MS. The peak area ratios of reduced progesterone to propranolol (i.e., the ratios in the above table) were calculated, and when the time is 0 the ratio is set to 0%.
AKR1C3 activity (%)=[(the amount of reduced progesterone after normalization of the sample) 30 min−(the amount of reduced progesterone after normalization of the sample) 0 min]/[(the amount of reduced progesterone after normalization of the negative control group) 30 min−(the amount of reduced progesterone after normalization of the negative control group) 0 min]*100.
The AKR1C3 activity results in the above table were calculated according to the above formula.

[2] = tested on: prostaglandin F2; test: Serum prostaglandin F2 by ELISA after single intravenous infusion to cynomolgus monkeys; assay type: in vivo, cynomolgus monkey; conditions: for The measured concentration of prostaglandin F2: 1 mg/kg intravenous infusion; for Effect on prostaglandin F2 content (in words): cynomolgus monkeys, after administration (0.58 mg/kg as printed in b199), fluctuating increase at 24 h; for The measured concentration of prostaglandin F2, Mean: mean of 3 animals, before administration 1088.09
Experimental: (§1) An experiment with three cynomolgus monkeys was performed according to the table below.
(§2) Four male cynomolgus monkeys were purchased from Guangxi Xiongsen Primate Development and Experiment Co., Ltd., and all of them were healthy cynomolgus monkeys that had passed the physical examination and have no abnormalities. Among them, three cynomolgus monkeys were used in the experiment of administration and the remaining one was used for preparing blank plasma.
(§3) Before administration, and 6, 24, 48 and 72 hours after the start of administration, 1 mL of blood was collected from the femoral vein or other suitable vein, and placed in a blood collection tube without anticoagulant. After collected, the blood sample was placed on ice and allowed to stand for 30-60 minutes before being centrifuged at 3,500 rpm for 10 minutes at 2-8° C. to separate the serum. The collected serum was stored at −80° C. before being analyzed.
(§4) Prostaglandins E2 and F2 in serum samples were analyzed by conventional ELISA methods. The measurement results are as follows.
(§5) The concentrations of prostaglandins E2 and F2 in the serum after single administration to cynomolgus monkeys by intravenous infusion

[3] = tested on: prostaglandin E2; test: Serum prostaglandin E2 by ELISA after single intravenous infusion to cynomolgus monkeys; assay type: in vivo, cynomolgus monkey; conditions: for The measured concentration of prostaglandin E2: 1 mg/kg intravenous infusion; for The measured concentration of prostaglandin E2, Mean: mean of 3 animals, before administration 469.60
Experimental: as §1, §2, §3, §4, §5

[4] = 5 μM AST-3424, pre-incubation 30 min at 37° C.
[5] = 5 μM AST-3424, pre-incubation 60 min at 37° C.
[6] = animal 101, 6 h after start of administration
[7] = animal 101, 24 h after start of administration
[8] = animal 101, 48 h after start of administration
[9] = animal 101, 72 h after start of administration
[10] = animal 102, 6 h after start of administration
[11] = animal 102, 24 h after start of administration
[12] = animal 102, 48 h after start of administration
[13] = animal 102, 72 h after start of administration
[14] = animal 103, 6 h after start of administration
[15] = animal 103, 24 h after start of administration
[16] = animal 103, 48 h after start of administration
[17] = animal 103, 72 h after start of administration

C[C@H](OP(=O)(N1CC1)N1CC1)c1ccc([N+](=O)[O-])c(Oc2cccc(C(=O)N(C)C)c2)c1 [AST-3424]
AKR1C3 activity % [1, 4]: 3.9%
activity at 5 µM [1, 4]: 3.9%
AKR1C3 activity % [1, 5]: 9.2%
activity at 5 µM [1, 5]: 9.2%
Peak area ratio of reduced progesterone to propranolol ([1]; pre-incubation 30 min, negative control 0.1506): 0.0074
Peak area ratio of reduced progesterone to propranolol ([1]; pre-incubation 60 min, negative control 0.1343): 0.0137
The measured concentration of prostaglandin F2 [2, 6]: 165.32 pg/mL
The measured concentration of prostaglandin F2 [2, 7]: 816.63 pg/mL
The measured concentration of prostaglandin F2 [2, 8]: 183.73 pg/mL
The measured concentration of prostaglandin F2 [2, 9]: 441.76 pg/mL
The measured concentration of prostaglandin F2 [2, 10]: 260.80 pg/mL
The measured concentration of prostaglandin F2 [2, 11]: 3460.25 pg/mL
The measured concentration of prostaglandin F2 [2, 12]: 216.12 pg/mL
The measured concentration of prostaglandin F2 [2, 13]: 968.01 pg/mL
The measured concentration of prostaglandin F2 [2, 14]: 300.65 pg/mL
The measured concentration of prostaglandin F2 [2, 15]: 4208.19 pg/mL
The measured concentration of prostaglandin F2 [2, 16]: 541.05 pg/mL
The measured concentration of prostaglandin F2 [2, 17]: 1369.67 pg/mL
Effect on prostaglandin F2 content (in words) ([2]; 0.58 mg/kg): greatly reduce the content of PGF2
Effect on prostaglandin F2 content (in words) ([2]; listed as AST3424, 0.58 mg/kg): decreased
The measured concentration of prostaglandin F2, Mean ([2]; 6 h): 242.26 pg/mL
The measured concentration of prostaglandin F2, Mean ([2]; 24 h): 2828.36 pg/mL
The measured concentration of prostaglandin F2, Mean ([2]; 48 h): 313.63 pg/mL
The measured concentration of prostaglandin F2, Mean ([2]; 72 h): 926.48 pg/mL
The measured concentration of prostaglandin E2 [3, 6]: 210.67 pg/mL
The measured concentration of prostaglandin E2 [3, 7]: 450.48 pg/mL
The measured concentration of prostaglandin E2 [3, 8]: 322.13 pg/mL
The measured concentration of prostaglandin E2 [3, 9]: 408.15 pg/mL
The measured concentration of prostaglandin E2 [3, 10]: 214.73 pg/mL
The measured concentration of prostaglandin E2 [3, 11]: 822.21 pg/mL
The measured concentration of prostaglandin E2 [3, 12]: 168.84 pg/mL
The measured concentration of prostaglandin E2 [3, 13]: 521.78 pg/mL
The measured concentration of prostaglandin E2 [3, 14]: 670.73 pg/mL
The measured concentration of prostaglandin E2 [3, 15]: 2735.20 pg/mL
The measured concentration of prostaglandin E2 [3, 16]: 276.35 pg/mL
The measured concentration of prostaglandin E2 [3, 17]: 663.03 pg/mL
Effect on prostaglandin E2 content (in words) ([3]; cynomolgus monkeys, after administration (0.58 mg/kg), fluctuating increase at 24 h): decreased
The measured concentration of prostaglandin E2, Mean ([3]; 6 h): 365.38 pg/mL
The measured concentration of prostaglandin E2, Mean ([3]; 24 h): 1335.97 pg/mL
The measured concentration of prostaglandin E2, Mean ([3]; 48 h): 255.78 pg/mL
The measured concentration of prostaglandin E2, Mean ([3]; 72 h): 530.99 pg/mL
